Test results: patent publication US20220213066A1, “SALTS OF A CLASS OF PYRIMIDINE COMPOUNDS, POLYMORPHS, AND PHARMACEUTICAL COMPOSITIONS THEREOF, PREAPRATION METHODS THEREFOR AND USES THEREOF” (INVENTISBIO CO., LTD., priority 2019, published 2022)
Counter-ions that a name gives are not always drawn.

Assay: dynamic vapor absorption and desorption analysis (DVS)
Type: physicochemical
Settings: for weight gain under 80% relative humidity / hygroscopicity of the sample: DVS, 25° C.; for hygroscopicity of the sample: graded in words; for crystalline form of the sample after the DVS test: XRPD overlay before and after DVS test
Experimental: The instrument used in dynamic vapor absorption and desorption analysis (DVS) was DVS Intrinsic (SMS, UK). The sample was placed in the sample basket of the instrument for automatic weighing, then heated to 40° C., and dried under a nitrogen stream to a dm/dt of less than 0.002%. The measurement was started after the temperature was dropped to 25° C., The instrument parameters were as follows.
Time per step: 60 min Sample temperature: 25° C. Cycle: entire cycle
Data storage rate: 5 s Total flow rate: 200 sccm Total flow rate after the test: 200 sccm

| SMILES | weight gain under 80% relative humidity | hygroscopicity of the sample | crystalline form of the sample after the DVS test |
| --- | --- | --- | --- |
| C=CC(=O)Nc1cc(Nc2nccc(-c3cn(CC(F)(F)F)c4ccccc34)n2)c(OC)cc1N(C)CCN(C)C [crystalline form I of succinate] | about 0.57% | slightly hygroscopic | does not change |
| C=CC(=O)Nc1cc(Nc2nccc(-c3cn(CC(F)(F)F)c4ccccc34)n2)c(OC)cc1N(C)CCN(C)C [crystalline form I of phosphate] | about 0.61% | slightly hygroscopic | does not change |
| C=CC(=O)Nc1cc(Nc2nccc(-c3cn(CC(F)(F)F)c4ccccc34)n2)c(OC)cc1N(C)CCN(C)C [crystalline form I of sulfate] | about 3.31% | hygroscopic | does not change |
| C=CC(=O)Nc1cc(Nc2nccc(-c3cn(CC(F)(F)F)c4ccccc34)n2)c(OC)cc1N(C)CCN(C)C [crystalline form III of hydrochloride] | about 1.86% | slightly hygroscopic | does not change |
| C=CC(=O)Nc1cc(Nc2nccc(-c3cn(CC(F)(F)F)c4ccccc34)n2)c(OC)cc1N(C)CCN(C)C [crystalline form I of p-toluenesulfonate] | about 0.55% | slightly hygroscopic | does not change |
| C=CC(=O)Nc1cc(Nc2nccc(-c3cn(CC(F)(F)F)c4ccccc34)n2)c(OC)cc1N(C)CCN(C)C [crystalline form I of benzenesulfonate] | about 0.41% | slightly hygroscopic | does not change |
